Here are results for 29 compounds from ChEMBL document CHEMBL1136192, “Cyclin-dependent kinase 4 inhibitors as a treatment for cancer. Part 2: identification and optimisation of substituted 2,4-bis anilino pyrimidines” (Bioorg Med Chem Lett, 2003).

Assay [1] addresses Cyclin-dependent kinase 4 (Homo sapiens, UniProt P11802). The assay is described as follows: Inhibitory concentration against cyclin-dependent kinase 4.
Assay [2] concerns the target Cyclin-dependent kinase 2 (Homo sapiens, UniProt P24941). The assay can be described thus: Inhibitory concentration against cyclin-dependent kinase 2.

Chain of Cyclin-dependent kinase 4 (P11802 whole entry): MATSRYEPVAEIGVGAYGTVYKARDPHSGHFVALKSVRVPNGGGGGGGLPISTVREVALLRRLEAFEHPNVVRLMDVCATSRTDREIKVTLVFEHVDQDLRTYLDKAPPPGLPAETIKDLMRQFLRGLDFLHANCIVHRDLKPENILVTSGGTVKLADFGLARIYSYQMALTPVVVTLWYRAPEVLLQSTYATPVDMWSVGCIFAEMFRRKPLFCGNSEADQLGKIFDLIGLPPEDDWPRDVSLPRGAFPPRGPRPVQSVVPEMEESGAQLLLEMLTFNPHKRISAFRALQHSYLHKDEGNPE

Broadly, the IC50 is the concentration that gives 50% inhibition. Read a low IC50 as greater potency. Regarding `CN(C)CC(O)COc1ccc(Nc2ncc(Cl)c(Nc3ccccc3)n2)cc1` (stereo not drawn), the IC50 in assay [1] turned out to be 100 nM; in assay [2] it was 0.5 µM.
Regarding `COc1ccccc1Nc1ccnc(Nc2ccc(OCC(O)CN(C)C)cc2)n1` (stereo not drawn), the IC50 in assay [1] was 19000 nM; in assay [2] it was 15 µM.
With `Cc1ccc(Cl)c(Nc2cc(Nc3ccc(OCC(O)CN(C)C)cc3)ncn2)c1` (stereo not drawn), the figures for the IC50 in assay [1] and in assay [2] were 2000 nM and 22 µM, respectively.
Taken in the same sequence, the figures for `CN(C)CC(O)COc1ccc(Nc2nccc(Nc3ccccc3F)n2)cc1` (stereo not drawn) were 1000 nM and 7 µM.
On to `COc1ccc(Nc2ccnc(Nc3ccc(OCC(O)CN(C)C)cc3)n2)cc1` (stereo not drawn), for which the 50% inhibitory concentration (IC50) came out at 2000 nM in assay [1] and 36 µM in assay [2].
For `CN(C)CC(O)COc1ccc(Nc2nccc(N(CCC#N)c3cc(Cl)ccc3Cl)n2)cc1` (stereo not drawn), in that order: 300 nM and 3 µM.
For the compound `CN(C)CC(O)COc1ccc(Nc2nccc(Nc3cc(Cl)ccc3Cl)n2)cc1` (stereo not drawn), the IC50 in assay [1] turned out to be 800 nM; in assay [2], 1 µM.
For the compound `Cc1ccc(F)c(Nc2ccnc(Nc3ccc(OCC(O)CN(C)C)cc3)n2)c1` (stereo not drawn), the results for the IC50 in assay [1] and in assay [2] were 700 nM and 2 µM, respectively.
Regarding `Cc1cnc(Nc2ccc(OCC(O)CN(C)C)cc2)nc1Nc1ccccc1` (stereo not drawn), the IC50 in assay [1] is 800 nM; in assay [2] it was 8 µM.
Taken in the same sequence, the figures for `CN(C)CC(O)COc1ccc(Nc2nccc(Nc3ccccc3Cl)n2)cc1` (stereo not drawn) were 1000 nM and 6 µM.
For `COc1ccc(Nc2cc(Nc3ccc(OCC(O)CN(C)C)cc3)ncn2)cc1` (stereo not drawn), the IC50 was 57000 nM in assay [1] and > 100 µM in assay [2].
As for `CN(C)CC(O)COc1ccc(Nc2nccc(Nc3cc(C(F)(F)F)ccc3F)n2)cc1` (stereo not drawn), the IC50 in assay [1] turned out to be 600 nM; in assay [2] it was 1 µM.
For `CN(C)CC(O)COc1ccc(Nc2nccc(N(CCCC(F)(F)F)c3cc(Cl)ccc3Cl)n2)cc1` (stereo not drawn), in that order: 200 nM and 12 µM.
On to `CN(C)CC(O)COc1ccc(Nc2nccc(N(Cc3ccccc3)c3cc(Cl)ccc3Cl)n2)cc1` (stereo not drawn), for which the IC50 was 1000 nM in assay [1] and > 10 µM in assay [2].
In the case of `CN(C)CC(O)COc1ccc(Nc2nccc(Nc3ccccc3)n2)cc1` (stereo not drawn), the IC50 in assay [1] came out at 2000 nM; in assay [2], 34 µM.
Consider `Cc1ccc(Nc2cc(Nc3ccc(OCC(O)CN(C)C)cc3)ncn2)cc1` (stereo not drawn), for which the IC50 in assay [1] is 25000 nM; in assay [2], > 100 µM.
Regarding `CN(C)CC(O)COc1ccc(Nc2nccc(Nc3ccccc3Br)n2)cc1` (stereo not drawn), the IC50 in assay [1] turned out to be 1000 nM; in assay [2] it was 7 µM.
With `CN(C)CC(O)COc1ccc(Nc2nccc(Nc3cccc(Cl)c3)n2)cc1` (stereo not drawn), the IC50 in assay [1] stood at 2000 nM; in assay [2], 5 µM.
Regarding `CN(C)CC(O)COc1ccc(Nc2cc(Nc3ccc(Cl)cc3)ncn2)cc1` (stereo not drawn), the IC50 was 41000 nM in assay [1] and > 100 µM in assay [2].
Taken in the same sequence, the figures for `C#CCN(c1ccnc(Nc2ccc(OCC(O)CN(C)C)cc2)n1)c1cc(Cl)ccc1Cl` (stereo not drawn) were 200 nM and 2 µM.
For `Cc1ccc(F)c(Nc2cc(Nc3ccc(OCC(O)CN(C)C)cc3)ncn2)c1` (stereo not drawn), in that order: 4000 nM and 81 µM.
For `CN(C)CC(O)COc1ccc(Nc2ncc(Br)c(Nc3ccccc3)n2)cc1` (stereo not drawn), in that order: 100 nM and 0.3 µM.
As for `CN(C)CC(O)COc1ccc(Nc2ncc(Br)c(N(CCCC(F)(F)F)c3ccccc3)n2)cc1` (stereo not drawn), the IC50 turned out to be 10 nM in assay [1] and 0.2 µM in assay [2].
`CN(C)CC(O)COc1ccc(Nc2nccc(N(CC#N)c3cc(Cl)ccc3Cl)n2)cc1` (stereo not drawn): the IC50 in assay [1] is 100 nM; in assay [2], 0.7 µM.
For `CN(C)CC(O)COc1ccc(Nc2nccc(Nc3ccc(Cl)cc3)n2)cc1` (stereo not drawn), in that order: 1000 nM and 18 µM.
`CN(C)CC(O)COc1ccc(Nc2ncc(F)c(Nc3ccccc3)n2)cc1` (stereo not drawn): the values for the IC50 in assay [1] and in assay [2] were 300 nM and > 10 µM, respectively.
For `Cc1ccc(Nc2ccnc(Nc3ccc(OCC(O)CN(C)C)cc3)n2)cc1` (stereo not drawn), in that order: 2000 nM and 26 µM.
For `CN(C)CC(O)COc1ccc(Nc2nccc(Nc3ccccc3C#N)n2)cc1` (stereo not drawn), the figures for the IC50 in assay [1] and in assay [2] were 2000 nM and 4 µM, respectively.
On to `Cc1ccc(Cl)c(Nc2ccnc(Nc3ccc(OCC(O)CN(C)C)cc3)n2)c1` (stereo not drawn), for which the IC50 in assay [1] is 2000 nM; in assay [2], 5 µM.
